Measurements from US12371454B2, “Cyclic peptide compound having Kras inhibitory action” (priority 2019, dated 2025).
Starred links: 1 amine or outer side, 2 acyl side, 3 side chain; linkers in the order of their positions; H or OH if unused. Positions of bridges follow the written chain, without caps; N, C: chain ends. Non-standard residues stand in square brackets, D forms with d. Residues, ends and D or L forms follow the SMILES beside them. *: point of attachment. hPhe(3-Cl-4-CF3) = N[C@@H](CCc1ccc(C(F)(F)F)c(Cl)c1)C(=O)O; NMePhe(4-CF3) = CN[C@@H](Cc1ccc(C(F)(F)F)cc1)C(=O)O; X39 = COc1ccc(C[C@@H](C(=O)[*:2])N(C)[*:1])cn1; NMePhe(4-Cl) = CN[C@@H](Cc1ccc(Cl)cc1)C(=O)O; NMePhe(4-Me) = CN[C@@H](Cc1ccc(C)cc1)C(=O)O; NMedβ3hAla = C[C@H](CC(=O)[*:2])N(C)[*:1]; Phe(3-Cl) = N[C@@H](Cc1cccc(Cl)c1)C(=O)O; NMeGly(cPent) = CN[C@H](C(=O)O)C1CCCC1; Phe(3-I) = N[C@@H](Cc1cccc(I)c1)C(=O)O; Phe(3-Me) = Cc1cccc(C[C@H](N)C(=O)O)c1; Pro(4,4-F2) = O=C(O)[C@@H]1CC(F)(F)CN1; NMeY = CN[C@@H](Cc1ccc(O)cc1)C(=O)O; NMeCha = CN[C@@H](CC1CCCCC1)C(=O)O; NMeChg = CN[C@H](C(=O)O)C1CCCCC1; NMeF = CN[C@@H](Cc1ccccc1)C(=O)O; hPhe = N[C@@H](CCc1ccccc1)C(=O)O; NMeD = CN[C@@H](CC(=O)O)C(=O)O; NMeL = CN[C@@H](CC(C)C)C(=O)O; NMeV = CN[C@H](C(=O)O)C(C)C; NMeS = CN[C@@H](CO)C(=O)O; NMeA = CN[C@@H](C)C(=O)O; NMeAib = CNC(C)(C)C(=O)O; Piperidide = C1CCN(*)CC1; Pyrrolidide = C1CCN(*)C1; Ac5c = NC1(C(=O)O)CCCC1; Aze = O=C(O)[C@@H]1CCN1; CH2CMe2OH = CC(C)(O)C*; βAla = NCCC(=O)O; Sar = CNCC(=O)O

target: T1, Kras and SOS1 (biotin-tagged human Kras loaded with GDP, His-tagged human SOS1) (Homo sapiens, UniProt P01116, G12D); assay: Protein-protein interaction inhibition between Kras and SOS1 (KrasGl2D-SOS PPI) using AlphaScreen; format: binding; conditions: AlphaScreen; biotin-tagged human Kras loaded with GDP, His-tagged human SOS1; read-out: KRAS G12D-SOS PPI IC50
T1 construct: made in house; host or cells: E. coli (stated for Kras only)
T1 sequence (P01116 1-188 isoform P01116-2 G12D): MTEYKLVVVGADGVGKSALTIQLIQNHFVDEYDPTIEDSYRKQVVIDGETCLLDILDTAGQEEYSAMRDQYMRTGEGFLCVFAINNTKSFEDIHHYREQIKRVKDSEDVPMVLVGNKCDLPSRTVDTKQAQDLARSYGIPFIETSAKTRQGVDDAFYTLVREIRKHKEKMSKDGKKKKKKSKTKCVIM
Procedure, shortened: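 Binding between SOS1 and Kras is detected as bead-proximity luminescence: illuminate Ni-conjugated donors (680 nm), collect 520-620 nm emission from streptavidin-conjugated acceptors; Kras carries biotin and GDP loaded after purification, SOS1 carries a His tag.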

Row | Compound | IC50
1 | CC[C@H](C)[C@@H]1NC(=O)[C@H](C)N(C)C(=O)C[C@@H](C(=O)N2CCCC2)N(C)C(=O)[C@H](CC(C)C)NC(=O)[C@H](Cc2ccccc2)N(C)C(=O)[C@H](C)NC(=O)[C@H](Cc2cccc(I)c2)NC(=O)CN(C)C(=O)[C@H](Cc2ccc(OC)cc2)N(C)C(=O)[C@@H]2CCN2C(=O)[C@H](C)N(C)C1=O [Compound 604] ([NMeA]I[NMeA][Aze][NMeY](Me)[Sar][Phe(3-I)]A[NMeF]L[NMeD]-Pyrrolidide; lactam N-11) | 16 nM
2 | CC[C@H](C)[C@@H]1NC(=O)CCNC(=O)[C@H](COCC(C)(C)O)N(C)C(=O)[C@H](C2CCCCC2)N(C)C(=O)C2(CCCC2)NC(=O)[C@@H]2CCCN2C(=O)[C@H](CCc2ccc(C(F)(F)F)c(Cl)c2)NC(=O)CN(C)C(=O)[C@H](CC2CCCCC2)N(C)C(=O)CN(C)C(=O)CN(C)C1=O [Compound 605] (cyclo([Ac5c][NMeChg][NMeS](CH2CMe2OH)[βAla]I[Sar][Sar][NMeCha][Sar][hPhe(3-Cl-4-CF3)]P)) | 9 nM
3 | CC[C@H](C)[C@@H]1NC(=O)[C@H](C)N(C)C(=O)C[C@@H](C(=O)N2CCCC2)NC(=O)[C@H](C(C)C)N(C)C(=O)[C@H](Cc2ccccc2)N(C)C(=O)[C@H](Cc2cccc(C)c2)NC(=O)[C@H](Cc2cccc(Cl)c2)NC(=O)CN(C)C(=O)[C@H](Cc2ccc(Cl)cc2)N(C)C(=O)CN(C)C(=O)CN(C)C1=O [Compound 609] ([NMeA]I[Sar][Sar][NMePhe(4-Cl)][Sar][Phe(3-Cl)][Phe(3-Me)][NMeF][NMeV]D-Pyrrolidide; lactam N-11) | 110 nM
4 | CC[C@H](C)[C@@H]1NC(=O)[C@H](CC(C)C)N(C)C(=O)C[C@@H](C)N(C)C(=O)[C@H](C2CCCC2)N(C)C(=O)C2(CCCC2)NC(=O)[C@@H]2CC(F)(F)CN2C(=O)[C@H](CCc2ccc(C(F)(F)F)c(Cl)c2)NC(=O)CN(C)C(=O)[C@H](Cc2ccc(C(F)(F)F)cc2)N(C)C(=O)CN(C)C(=O)CN(C)C1=O [Compound 611] (cyclo([Ac5c][NMeGly(cPent)][NMedβ3hAla][NMeL]I[Sar][Sar][NMePhe(4-CF3)][Sar][hPhe(3-Cl-4-CF3)][Pro(4,4-F2)])) | 3.3 nM
5 | CC[C@H](C)[C@@H]1NC(=O)[C@H](C)N(C)C(=O)C[C@@H](C(=O)N2CCCC2)NC(=O)[C@H](C(C)C)N(C)C(=O)[C@H](Cc2ccccc2)N(C)C(=O)[C@H](C)NC(=O)[C@H](Cc2cccc(Cl)c2)NC(=O)CN(C)C(=O)[C@H](Cc2ccc(Cl)cc2)N(C)C(=O)CN(C)C(=O)CN(C)C1=O [Compound 612] ([NMeA]I[Sar][Sar][NMePhe(4-Cl)][Sar][Phe(3-Cl)]A[NMeF][NMeV]D-Pyrrolidide; lactam N-11) | 120 nM
6 | CC[C@H](C)[C@@H]1NC(=O)[C@H](C)N(C)C(=O)C[C@@H](C(=O)N2CCCC2)NC(=O)[C@H](CC(C)C)N(C)C(=O)[C@H](Cc2ccccc2)N(C)C(=O)[C@H](CC(C)C)NC(=O)[C@H](Cc2ccccc2)NC(=O)CN(C)C(=O)[C@H](Cc2ccc(Cl)cc2)N(C)C(=O)CN(C)C(=O)CN(C)C1=O [Compound 613] ([NMeA]I[Sar][Sar][NMePhe(4-Cl)][Sar]FL[NMeF][NMeL]D-Pyrrolidide; lactam N-11) | 500 nM
7 | CC[C@H](C)[C@@H]1NC(=O)[C@H](CC(C)C)N(C)C(=O)C[C@@H](C(=O)N2CCCCC2)N(C)C(=O)[C@H](C2CCCCC2)N(C)C(=O)C2(CCCC2)NC(=O)[C@H](Cc2ccc(OC)nc2)N(C)C(=O)[C@H](CCc2ccc(C(F)(F)F)c(Cl)c2)NC(=O)CN(C)C(=O)[C@H](CC2CCCCC2)N(C)C(=O)[C@@H]2CCN2C(=O)CN(C)C1=O [Compound 614] ([NMeL]I[Sar][Aze][NMeCha][Sar][hPhe(3-Cl-4-CF3)][X39][Ac5c][NMeChg][NMeD]-Piperidide; lactam N-11) | 24 nM
8 | CC[C@H](C)[C@@H]1NC(=O)[C@H](CC(C)C)N(C)C(=O)C[C@@H](C(=O)N2CCCCC2)N(C)C(=O)[C@H](CC(C)C)NC(=O)C(C)(C)N(C)C(=O)[C@H](CCc2ccccc2)NC(=O)[C@H](Cc2cccc(I)c2)NC(=O)CN(C)C(=O)[C@H](Cc2ccc(C)cc2)N(C)C(=O)[C@@H]2CCN2C(=O)[C@H](C)N(C)C1=O [Compound 617] ([NMeL]I[NMeA][Aze][NMePhe(4-Me)][Sar][Phe(3-I)][hPhe][NMeAib]L[NMeD]-Piperidide; lactam N-11) | 110 nM
9 | CC[C@H](C)[C@@H]1NC(=O)[C@H](CC(C)C)N(C)C(=O)C[C@@H](C(=O)N2CCCCC2)N(C)C(=O)[C@H](CC(C)C)NC(=O)[C@H](Cc2ccccc2)N(C)C(=O)[C@H](C)NC(=O)[C@H](Cc2cccc(I)c2)NC(=O)CN(C)C(=O)[C@H](Cc2ccc(C)cc2)N(C)C(=O)CN(C)C(=O)CN(C)C1=O [Compound 619] ([NMeL]I[Sar][Sar][NMePhe(4-Me)][Sar][Phe(3-I)]A[NMeF]L[NMeD]-Piperidide; lactam N-11) | 19 nM
